Laboratory results reported in publication PMC8147293, “Library of Selenocyanate and Diselenide Derivatives as In Vivo Antichagasic Compounds Targeting Trypanosoma cruzi Mitochondrion” (Pharmaceuticals, 2021).
Where two headings read alike, the source gives them in different places.

Legend:
[1] = system: Trypanosoma cruzi intracellular amastigotes; experiment: Screening against intracellular amastigotes in Vero cells (Giemsa counting); format: cell-based
Procedure: (§1) Trypanocidal activity against amastigotes was determined according to the literature reported previously. […]. […] Each compound concentration was tested in triplicate in four separate determinations.

[2] = system: epimastigotes of T. cruzi Arequipa; experiment: 1H NMR analysis of excreted metabolites; format: cell-based, Trypanosoma cruzi; details: IC25 concentrations, 72 h
Procedure: 5 × 10^5 epimastigotes·mL^−1 of T. cruzi Arequipa were treated by adding the tested compounds at IC25 concentrations in 25 cm^2 cell culture flasks at 28 °C for 72 h. Untreated controls were also included. Cultures were then centrifuged and filtered, and the metabolites of the supernatants were analyzed using a ^1H NMR spectrometer (VARIAN DIRECT DRIVE 500 MHz […]) with AutoX probe, D2O as solvent and 2,2-dimethyl-2-silapentane-5-sulphonate as the reference signal. Chemical shifts were expressed in parts per million (ppm), and analyses were conducted as previously reported.

[3] = system: epimastigotes of T. cruzi Arequipa strain; experiment: Screening against extracellular epimastigotes (resazurin); format: cell-based, Trypanosoma cruzi; details: for IC50: Trypanosoma cruzi
Procedure: Trypanocidal activity against epimastigotes of T. cruzi Arequipa strain (MHOM/Pe/2011/Arequipa, discrete typing unit V) was tested as previously described. In short, 5 × 10^5 epimastigotes·mL^−1 were treated by adding the tested compounds at a concentration range from 100 to 0.2 µM in 96-well microplates (200 µL·well^−1) for 48 h. Subsequently, resazurin sodium salt (Sigma-Aldrich) was added to be incubated for further 24 h. Finally, the absorbance was measured, and the trypanocidal activity was expressed as the IC50 (inhibitory concentration 50) using GraphPad Prism 6 software. Each compound concentration was tested in triplicate in three independent experiments.

[4] = system: Trypanosoma cruzi; experiment: Parasitemia reactivation after immunosuppression in BALB/c mice; format: in vivo; details: 20 mg/kg per day for 5 days, compared to untreated mice
Procedure: Secondly, the experimental cure was determined using a double checking widely used in in vivo trypanocidal trials. This double checking—based on immunosuppression and PCR (Figure 2B,C, respectively)—was performed to evaluate the treatment effectiveness and the disease extent in both acute and chronic CD at the end of the in vivo timeline. The mice whose parasitemia and PCR remain negative after immunosuppression are considered cured.
Immunosuppression enhances the reactivation of any residual infection, which is proportional to the parasite survival rate.
(§2) Infection was carried out by intraperitoneal inoculation of 5 × 10^5 BTs of T. cruzi per mouse in 0.2 mL PBS [56]. The mice were treated by oral route (~200 µL) once daily for 5 consecutive days. The treatment for mice treated in the acute and chronic phases began when the infection was confirmed (9th day post-infection (dpi)) and was established that the animals had entered the chronic phase (100th dpi), respectively.
(§3) The mice were divided into six groups (n = 3 per group): 0, negative control group (uninfected and untreated mice); I, positive control group (infected and untreated mice); II, BZN group (mice infected and treated with BZN); III, 8 group (mice infected and treated with 8); IV, 10 group (mice infected and treated with 10); V, 15 group (mice infected and treated with 15). The tested compounds and BZN were prepared at 2 mg·mL^−1 in an aqueous suspension vehicle containing 5% (v/v) DMSO and 0.5% (w/v) hydroxypropyl methylcellulose, as previously reported. Therefore, doses of 20 mg·kg^−1 per day were administered for 5 consecutive days, and vehicle only was administered in the negative and positive control groups.
(§4) All in vivo assays for the evaluation of compounds in the acute and chronic CD (Scheme 1)—monitoring of parasitemia, immunosuppression, PCR [59, 60], ELISA [56], and clinical analysis [56]—were performed as previously described. PCR was based on the Spliced Leader (SL) intergenic region sequence of T. cruzi (for detailed description, see literature reported previously).

[5] = system: Trypanosoma cruzi; experiment: Parasitemia monitoring in infected BALB/c mice, acute Chagas disease; format: in vivo; details: oral 20 mg/kg per day for 5 days from 9th dpi, versus untreated
Procedure: as §2, §3, §4

[6] = system: Trypanosoma cruzi amastigotes in Vero cells; experiment: Infection rate and amastigotes per Vero cell over 10 days; format: cell-based; details: IC25 concentrations, measured at 2 days intervals for 10 days
Procedure: Before going ahead on in vivo trials, the in vitro infection rate and the average number of amastigotes per Vero cell were also measured at 2 days intervals for 10 days after treating the infected cultures with BZN and potential candidates (8, 10, and 15) (Figure 1) at ICH25 concentrations resulting from amastigotes screening. […]. Fast-acting drugs are urgently needed, and this feature is an additional advantage since they can eliminate the parasite in a few doses.
as §1
Figure 1 (A) Percentage of infected Vero cells and (B) number of amastigotes of Trypanosoma cruzi per Vero cell exposed to benznidazole (BZN), 8, 10 and 15. Values constitute means of three separate determinations ± standard deviation. * Significant differences between untreated and treated parasites for α = 0.05. dpi, days post-infection.

Q: Which results are given for `FC(F)(F)c1ccc(C[Se][Se]Cc2ccc(C(F)(F)F)cc2)cc1` [compound 8]?
A: Selectivity Index Amast. ([1]; IC50 Vero cells/IC50 amastigotes): 55; IC50 ([1]; Trypanosoma cruzi, Table 1, intracellular amastigotes in Vero cells, 72 h, read-out: Activity IC50 Amast.): 800 ± 200 nM; variation of excreted metabolites versus untreated parasites [2]: < 10%; Selectivity Index Epimast. ([3]; IC50 Vero cells/IC50 epimastigotes): 23; IC50 ([3]; Table 1, T. cruzi epimastigotes, 48 h treatment + 24 h resazurin, read-out: Activity IC50 Epimast.): 1900 ± 100 nM; IC50 ([3]; Table S1, cultured epimastigote form of T. cruzi, read-out: Activity IC50): ≤ 10000 nM; reactivation of infection after immunosuppression ([4]; mice treated in acute CD): 67%; reactivation of infection after immunosuppression ([4]; mice treated in chronic CD): 44%; parasitemia levels (counting BTs) during the acute CD [5]: trypanocidal activity was even stronger; infection rate and average number of amastigotes per Vero cell [6]: decrease in both infection rate and number of amastigotes per cell in a time-dependent manner
